Measured values taken from PMC7400437, “Synthesis and Evaluation of the Antibacterial Activities of 13-Substituted Berberine Derivatives” (Antibiotics, 2020).

Legend:
C. albicans = assay: MIC, antifungal activity assay; format: cell-based, Candida albicans (DSM 10697); conditions: Candida albicans; Table 1 first screening; 35 °C, 24 h; read-out: Minimal Inhibitory Concentration (MIC) C. albicans
M. smegmatis = assay: microbe, parasite or virus in culture; format: cell-based, Mycobacterium smegmatis (mc2155, ATCC 700084); conditions: Mycolicibacterium smegmatis, 72 h, read-out: Minimal Inhibitory Concentration (MIC) M. smegmatis
P. aeruginosa = assay: MIC, antimicrobial activity assay; format: cell-based, Pseudomonas aeruginosa (ATCC 9027); conditions: Pseudomonas aeruginosa; Table 1 first screening; read-out: Minimal Inhibitory Concentration (MIC) P. aeruginosa
B. subtilis = assay: MIC, antimicrobial activity assay; format: cell-based, Bacillus subtilis (ATCC 6633); conditions: Bacillus subtilis; Table 1 first screening; read-out: Minimal Inhibitory Concentration (MIC) B. subtilis
[1] = system: bacterial membrane integrity; assay: Bacterial membrane permeabilization assay (propidium iodide), strain not specified; format: cell-based; conditions: data not shown
Experimental: Membrane permeabilization by berberine derivatives was evaluated using the cell-impermeable DNA/RNA probe propidium iodide as previously explained. Logarithmic growing bacterial suspensions were prepared from overnight bacterial suspension by 1 in 10 dilution. After 3 h incubation at 37 °C, 200 rpm, bacterial suspensions were centrifuged for 5 min at 3000 rpm. Cell pellets were then resuspended in sterile PBS at about 10^9 cells/mL. Propidium iodide (Sigma Aldrich) was then added to the suspension at a final concentration of 60 µM. 100 µL of this suspension were then transferred into 96-well black plates (Dominique Dutscher) and exposed to increasing concentrations of berberine’s derivative (from 0 to 100 µM, 1:2 dilution). […] All steps of the assay were performed in aerobic condition except for H. pylori which was done in microaerobic condition generated with GasPak unit (Sigma Aldrich). Bacteria were incubated at 37 °C and the kinetics of fluorescence variations (excitation at 530 nm and emission at 590 nm) were then recorded over time using a Synergy Mx microplate reader (Biotek). Cetyl trimethylammonium bromide (CTAB) at 300 µM was used as positive control giving 100% permeabilization. Results were expressed in % of permeabilization. All experiments were done in triplicate.

[2] = system: selected relevant microorganisms; assay: Antimicrobial activity, overall statement (active/inactive); format: cell-based
S. aureus = assay: MIC, antimicrobial activity assay; format: cell-based, Staphylococcus aureus (ATCC 6538P); conditions: Staphylococcus aureus; Table 1 first screening; read-out: Minimal Inhibitory Concentration (MIC) S. aureus
E. coli = assay: MIC, antimicrobial activity assay; format: cell-based, Escherichia coli (ATCC 8739); conditions: Escherichia coli; Table 1 first screening; read-out: Minimal Inhibitory Concentration (MIC) E. coli
[3] = system: HepG2 (human liver cells); assay: Cytotoxic assay on human cells (resazurin); format: cell-based; conditions: HepG2, 48 h, read-out: Inhibitory Concentration 50 (IC50) on cell viability, HEPG2
Experimental: (§1) The toxicity of berberine and berberine’s derivatives on human cells was evaluated using resazurin assay as previously described. Human cells used were BEAS (ATCC CRL-9609), Caco2 (ATCC HTB-37) and HepG2 (ATCC HB-8065) corresponding respectively to human airway epithelial cells, intestinal epithelial cells and liver cells. Cells were cultured in Dulbecco’s modified essential medium (DMEM) supplemented with 10% fetal bovine serum (FBS), 1% L-glutamine and 1% antibiotics (Thermo Fisher Scientific, Illkirch-Graffenstaden, France). Cells were routinely grown on 25 cm^2 flasks and maintained in a 5% CO2 incubator at 37 °C. For toxicity assay, cells were detached using trypsin–EDTA solution (Thermo Fisher Scientific), counted using Mallasez counting chamber and seeded into 96-well cell culture plates (Greiner bio-One, Dominique Dutscher, Brumath, France) at approximately 10,000 cells per well. The cells were left to grow for 48–72 h at 37 °C in a 5% CO2 incubator until they reached confluence. Media from wells was then aspirated and cells were treated with 100 µL of culture media containing increasing concentrations of berberine or berberine’s derivatives obtained by serial dilution (from 0 to 50 µM, 1:2 dilution), DMSO (0.5% DMSO final concentration) was used as negative control. After 48 h incubation at 37 °C in a 5% CO2 incubator, cell viability was evaluated using resazurin based in vitro toxicity assay kit (Sigma-Aldrich) following manufacturer’s instructions. Briefly, cell wells were emptied, and cells were treated with 100 µL of resazurin diluted 1:10 in sterile PBS containing calcium and magnesium (PBS^++, pH 7.4). After 4 h incubation at 37 °C, fluorescence intensity (excitation wavelength of 530 nm/emission wavelength of 590 nm) was measured using Synergy Mx microplate reader (Biotek). The fluorescence values were normalized by the controls (DMSO treated cells) and expressed as percent viability. The IC50 values of berberine and berberine’s derivatives on cell viability (i.e., the concentration of derivative causing a reduction of 50% of the cell viability) were calculated using GraphPad® Prism 7 software (San Diego, CA, USA). t-Test and two ways ANOVA analyses were used to address the significant differences between mean values with significance set at p < 0.05.

[4] = system: BEAS (human airway epithelial cells); assay: Cytotoxic assay on human cells (resazurin); format: cell-based; conditions: Epithelial cell, 48 h, means +/−SD, read-out: Inhibitory Concentration 50 (IC50) on cell viability, BEAS
Experimental: as §1

[5] = system: Caco2 (human intestinal epithelial cells); assay: Cytotoxic assay on human cells (resazurin); format: cell-based; conditions: Homo sapiens, Caco-2, 48 h, read-out: Inhibitory Concentration 50 (IC50) on cell viability, Caco2
Experimental: as §1

`COc1cc(Cc2c3[n+](cc4c(OC)c(OC)ccc24)CCc2cc4c(cc2-3)OCO4)cc(OC)c1OC` [Compound 15, 13[(3,4,5-Trimethoxyphenyl)methyl]Berberine] showed an MIC (C. albicans) greater than 100 µM, an MIC (M. smegmatis) of 50 µM and an MIC (P. aeruginosa) greater than 100 µM. For the same compound, the MIC (B. subtilis) was greater than 100 µM, the “membrane permeabilization (inactive derivatives)” value [1] was “low to no membrane permeabilization” and the “antimicrobial activity (active/inactive)” value [2] was “No Activity”. It also gave an MIC (S. aureus) of 100 µM and an MIC (E. coli) greater than 100 µM.

`COc1ccc2c(Cc3ccc(F)cc3)c3[n+](cc2c1OC)CCc1cc2c(cc1-3)OCO2` [Compound 6, 13-(4-Fluorobenzyl)Berberine] gave an MIC (C. albicans) greater than 100 µM, an IC50 [3] greater than 50 µM and an IC50 [4] greater than 50 µM. The IC50 [5] was 36.9 ± 4.3 µM, the MIC (M. smegmatis) was 25 µM and the MIC (P. aeruginosa) was greater than 100 µM. It also gave an MIC (B. subtilis) of 50 µM, a melting point of 238 °C and an MIC (S. aureus) of 12.5 to 25 µM. For the same compound, the MIC (E. coli) was greater than 100 µM.

`COc1ccc2cc3[n+](cc2c1OC)CCc1cc2c(cc1-3)OCO2` [Berberine] showed an MIC (C. albicans) of 100 µM, an IC50 [3] greater than 50 µM and an IC50 [4] of 40.5 ± 5.4 µM. It also gave an IC50 [5] of 21.6 ± 2.7 µM, an MIC (M. smegmatis) of 100 µM and an MIC (P. aeruginosa) greater than 100 µM. For the same compound, the MIC (B. subtilis) was greater than 100 µM, the “antimicrobial activity (active/inactive)” value [2] was “low to no antimicrobial activity” and the MIC (S. aureus) was greater than 100 µM. It also gave an MIC (E. coli) greater than 100 µM.

For `COc1ccc2c(Cc3ccc(/C=C/C(=O)c4cc(NC(C)=O)ccc4O)cc3)c3[n+](cc2c1OC)CCc1cc2c(cc1-3)OCO2` [Compound 24, N-{3-[(2E)-3-{4-[(Berberin-13-yl)methyl]phenyl}prop-2-enoyl]-4-hydroxyphenyl}acetamide], the MIC (C. albicans) was greater than 100 µM, the MIC (M. smegmatis) was 25 µM and the MIC (P. aeruginosa) was greater than 100 µM. For the same compound, the MIC (B. subtilis) was 100 µM, the “membrane permeabilization (inactive derivatives)” value [1] was “low to no membrane permeabilization” and the “antimicrobial activity (active/inactive)” value [2] was “No Activity”. The MIC (S. aureus) was 50 to 100 µM and the MIC (E. coli) was greater than 100 µM.

Compound `CCOC(=O)Cc1c2[n+](cc3c(OC)c(OC)ccc13)CCc1cc3c(cc1-2)OCO3` [Compound 4, 13-(Acetic Acid Ethylester) Berberine] has an MIC (C. albicans) greater than 100 µM, an MIC (M. smegmatis) of 100 µM and an MIC (P. aeruginosa) greater than 100 µM. The MIC (B. subtilis) was greater than 100 µM, the melting point was 216 °C and the MIC (S. aureus) was greater than 100 µM. For the same compound, the MIC (E. coli) was greater than 100 µM.
